The target of the test is T1, GST-tagged ROR gamma ligand binding domain (LBD) (Homo sapiens, UniProt P51449).
T1 construct: purchased Invitrogen
T1 sequence (P51449 269-508 limits assumed): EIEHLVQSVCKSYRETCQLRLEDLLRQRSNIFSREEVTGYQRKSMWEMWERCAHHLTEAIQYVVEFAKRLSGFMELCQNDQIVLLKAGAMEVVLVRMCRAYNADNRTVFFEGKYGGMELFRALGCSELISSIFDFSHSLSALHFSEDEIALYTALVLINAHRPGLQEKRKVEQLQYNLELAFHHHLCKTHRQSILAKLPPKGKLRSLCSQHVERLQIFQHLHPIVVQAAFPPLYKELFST
Description: TR-FRET assay for ROR gamma (LanthaScreen co-activator peptide recruitment). Type of test: biochemical. The following applies: for inhibition at 1 µM: compound 1 μM; for inhibition at 1 µM / inhibition at 10 µM: TR-FRET ratio 520/495, percent of control; for inhibition at 10 µM: compound 10 μM; for IC50: class symbols, from dose response curve. The text has this: The compounds described herein were screened for ROR gamma modulator activity using the TR-FRET assay by Lantha Screen as described in JBC 2011, 286, 26: 22707-10; and Drug Metabolism and Disposition 2009, 37, 10: 2069-78.
The assay is based on the principle that binding of the agonist to the ROR gamma causes a conformational change around helix 12 in the ligand binding domain, resulting in higher affinity for the co-activator peptide. ROR gamma being constitutively active, the Fluorescein-D22 co-activator peptide used in the assay is recruited in the absence of a ligand. Binding of the co-activator peptide, causes an increase in the TR-FRET signal while binding of an antagonist decreases the recruitment of the co-activator peptide, causing a decrease in the TR-FRET signal compared to control with no compound. The assay was performed using a two-step procedure, pre-incubation step with the compound followed by the detection step on addition of the anti-GST tagged terbium (Tb) and fluorescein tagged fluorophores as the acceptor.
Test compounds or reference compounds such as T0901317 (Calbiochem) were dissolved in dimethylsulfoxide (DMSO) to prepare 10.0 mM stock solutions and diluted to the desired concentration. The final concentration of DMSO in the reaction was 4% (v/v). The assay mixture was prepared by mixing 10 nM of the GST-tagged ROR gamma ligand binding domain (LBD) in the assay buffer containing 25 mM HEPES (pH 7.4), 100 mM NaCl, 5 mM DTT and 0.01% BSA with or without the desired concentration of the compound. The reaction was incubated at 22° C. for 1 hour. The pre-incubation step was terminated by addition of the detection mixture containing 300 nM Fluorescein-D22 co-activator peptide and 10 nM lantha screen Tb-anti GST antibody into the reaction mixture. After shaking for 5 minutes the reaction was further incubated for 1 hour at room temperature and read at 4° C. on an Infinite F500 reader as per the kit instructions (Invitrogen). The inhibition of test compound was calculated based on the TR-FRET ratio of 520/495. The activity was calculated as a percent of control reaction. IC50 values were calculated from dose response curve by nonlinear regression analysis using GraphPad Prism software.
Percentage inhibition at concentrations of 1.0 μM and 10.0 μM are given in the table along with IC50 (nM) details for selected examples.

As a reminder, the inhibition is the change of the read-out against control, counted positive when it falls. Usually IC50 stands for the concentration that inhibits the measured activity by half. The low end stands for higher potency, the high end for lower potency.

`CCS(=O)(=O)c1ccc(CC(=O)Nc2ccc(OC(C)(C)c3ccc(F)c(F)c3)cc2)cc1` [Example 1, N-(4-{[2-(3,4-Difluorophenyl)propan-2-yl]oxy}phenyl)-2-[4(ethylsulfonyl)phenyl]acetamide]: the inhibition at 1 µM came out at 47.7% and the inhibition at 10 µM is 74.3%.

Regarding `CCS(=O)(=O)c1ccc(CC(=O)Nc2ccc(OC(C)(C)c3ccc(F)cc3F)cc2)cc1` [Example 2, N-(4-{[2-(2,4-Difluorophenyl)propan-2-yl]oxy}phenyl)-2-[4-(ethylsulfonyl)phenyl]acetamide], the inhibition at 1 µM turned out to be 66.9% and the inhibition at 10 µM turned out to be 78%.

For `CCS(=O)(=O)c1ccc(CC(=O)Nc2ccc(OC(C)(C)c3ccc(Cl)cc3Cl)cc2)cc1` [Example 3, N-(4-{[2-(2,4-Dichlorophenyl)propan-2-yl]oxy}phenyl)-2-[4-(ethylsulfonyl)phenyl]acetamide], the IC50 is less than 50 nM, the inhibition at 1 µM was found to be 81.3% and the inhibition at 10 µM stood at 83.4%.

On to `CCS(=O)(=O)c1ccc(CC(=O)Nc2ccc(OC(C)(C)c3ccc(Cl)c(Cl)c3)cc2)cc1` [Example 4, N-(4-{[2-(3,4-Dichlorophenyl)propan-2-yl]oxy}phenyl)-2-[4-(ethylsulfonyl)phenyl]acetamide], for which the half-maximal inhibitory concentration (IC50) was less than 50 nM, the inhibition at 1 µM came out at 80.5% and the inhibition at 10 µM was found to be 86.4%.

Consider `CCS(=O)(=O)c1ccc(CC(=O)Nc2ccc(OC(C)(C)c3cc(Cl)cc(Cl)c3)cc2)cc1` [Example 5, N-(4-{[2-(3,5-Dichlorophenyl)propan-2-yl]oxy}phenyl)-2-[4-(ethylsulfonyl)phenyl]acetamide], for which the inhibition at 1 µM is 58.2% and the inhibition at 10 µM turned out to be 66.9%.

As to `CCS(=O)(=O)c1ccc(CC(=O)Nc2ccc(OC(C)(C)c3ccc(Cl)cc3F)cc2)cc1` [Example 6, N-(4-{[2-(4-Chloro-2-fluorophenyl)propan-2-yl]oxy}phenyl)-2-[4-(ethylsulfonyl)phenyl]acetamide], the inhibition at 1 µM stood at 77.5% and the inhibition at 10 µM came out at 83.1%.

On to `CCS(=O)(=O)c1ccc(CC(=O)Nc2ccc(OC(C)(C)c3ccc(Cl)c(F)c3)cc2)cc1` [Example 7, N-{4-[1-(4-Chloro-3-fluoro-phenyl)-1-methyl-ethoxy]-phenyl}-2-(4-ethanesulfonyl-phenyl)-acetamide], for which the inhibition at 1 µM is 74.4% and the inhibition at 10 µM was found to be 85.1%.

In the case of `CCS(=O)(=O)c1ccc(CC(=O)Nc2ccc(OC(C)(C)c3ccc(F)cc3Cl)cc2)cc1` [Example 8, N-(4-{[2-(2-Chloro-4-fluorophenyl)propan-2-yl]oxy}phenyl)-2-[4-(ethylsulfonyl)phenyl]acetamide], the IC50 is less than 50 nM, the inhibition at 1 µM turned out to be 85% and the inhibition at 10 µM amounted to 87.8%.

With `CCS(=O)(=O)c1ccc(CC(=O)Nc2ccc(OC(C)(C)c3ccc(C(F)(F)F)cc3)cc2)cc1` [Example 9, 2-[4-(Ethylsulfonyl)phenyl]-N-[4-({2-[4-(trifluoromethyl)phenyl]propan-2-yl}oxy)phenyl]acetamide], the IC50 is less than 50 nM, the inhibition at 1 µM stood at 86.5% and the inhibition at 10 µM is 89%.

Consider `CCS(=O)(=O)c1ccc(CC(=O)Nc2ccc(OC(C)(C)c3ccc(C(F)(F)F)c(F)c3)cc2)cc1` [Example 10, 2-(4-Ethanesulfonyl-phenyl)-N-{4-[1-(3-fluoro-4-trifluoromethyl-phenyl)-1-methyl-ethoxy]-phenyl}-acetamide], for which the inhibition at 1 µM was found to be 70.9% and the inhibition at 10 µM was determined as 81.5%.

For `CCS(=O)(=O)c1ccc(CC(=O)Nc2ccc(OC(C)(C)c3ncc(Cl)cc3Cl)cc2)cc1` [Example 11, N-{4-[1-(3,5-Dichloro-pyridin-2-yl)-1-methyl-ethoxy]-phenyl}-2-(4-ethanesulfonyl-phenyl)-acetamide], the IC50 was less than 50 nM, the inhibition at 1 µM is 84.3% and the inhibition at 10 µM came to 89%.

Regarding `CCC(CC)(Oc1ccc(NC(=O)Cc2ccc(S(=O)(=O)CC)cc2)cc1)c1ccc(Cl)c(F)c1` [Example 12, N-{4-[1-(4-Chloro-3-fluoro-phenyl)-1-ethyl-propoxy]-phenyl}-2-(4-ethanesulfonyl-phenyl)-acetamide], the IC50 lay within 50 to 100 nM, the inhibition at 1 µM stood at 73.9% and the inhibition at 10 µM is 85.4%.

For `CCC(CC)(Oc1ccc(NC(=O)Cc2ccc(S(=O)(=O)CC)cc2)cc1)c1ccc(F)cc1F` [Example 13, N-{4-[1-(2,4-Difluoro-phenyl)-1-ethyl-propoxy]-phenyl}-2-(4-ethanesulfonyl-phenyl)-acetamide], the inhibition at 1 µM came to 56.2% and the inhibition at 10 µM is 68.8%.

Consider `CCn1c(C(C)(C)Oc2ccc(NC(=O)Cc3ccc(S(=O)(=O)CC)cc3)cc2)nc2ccc(F)cc21` [Example 14, N-(4-{[2-(1-ethyl-6-fluoro-1H-benzimidazol-2-yl)propan-2-yl]oxy}phenyl)-2-[4-(ethylsulfonyl)phenyl]acetamide], for which the half-maximal inhibitory concentration (IC50) is less than 50 nM, the inhibition at 1 µM was found to be 88.9% and the inhibition at 10 µM was found to be 93.3%.

Turning to `CCn1c(C(C)(C)Oc2ccc(NC(=O)Cc3ccc(S(=O)(=O)CC)cc3)cc2)nc2cc(F)ccc21` [Example 15, 2-(4-Ethanesulfonyl-phenyl)-N-{4-[1-(1-ethyl-5-fluoro-1H-benzoimidazol-2-yl)-1-methyl-ethoxy]-phenyl}-acetamide], the IC50 was less than 50 nM, the inhibition at 1 µM came to 83% and the inhibition at 10 µM came out at 85.2%.

As for `CCn1c(C(C)(C)Oc2ccc(NC(=O)Cc3ccc(S(=O)(=O)CC)cc3)cc2)nc2cc(Cl)ccc21` [Example 16, N-(4-{[2-(5-Chloro-1-ethyl-1H-benzimidazol-2-yl)propan-2-yl]oxy}phenyl)-2-[4-(ethylsulfonyl)phenyl]acetamide], the IC50 is less than 50 nM, the inhibition at 1 µM came to 88.6% and the inhibition at 10 µM stood at 94.3%.

As to `CCn1c(C(C)(C)Oc2ccc(NC(=O)Cc3ccc(S(=O)(=O)CC)cc3)cc2)nc2ccc(Cl)cc21` [Example 17, N-(4-{[2-(6-Chloro-1-ethyl-1H-benzimidazol-2-yl)propan-2-yl]oxy}phenyl)-2-[4-(ethylsulfonyl)phenyl]acetamide], the IC50 was less than 50 nM, the inhibition at 1 µM was 88.7% and the inhibition at 10 µM turned out to be 94.3%.

As to `CCS(=O)(=O)c1ccc(CC(=O)Nc2ccc(OC(C)(C)c3nc4ccc(Cl)cc4n3C)cc2)cc1` [Example 18, N-{4-[1-(6-Chloro-1-methyl-1H-benzoimidazol-2-yl)-1-methyl-ethoxy]-phenyl}-2-(4-ethanesulfonyl-phenyl)-acetamide], the IC50 was greater than 100 nM, the inhibition at 1 µM was 78.6% and the inhibition at 10 µM worked out at 91%.

On to `CCn1c(C(C)(C)Oc2ccc(NC(=O)Cc3ccc(S(=O)(=O)CC)cc3)cc2)nc2cccc(Cl)c21` [Example 19, N-(4-{[2-(7-Chloro-1-ethyl-1H-benzimidazol-2-yl)propan-2-yl]oxy}phenyl)-2-[4-(ethylsulfonyl)phenyl]acetamide], for which the IC50 was in the range of 50 to 100 nM, the inhibition at 1 µM was 85.5% and the inhibition at 10 µM is 88.9%.

Consider `CCS(=O)(=O)c1ccc(CC(=O)Nc2ccc(OC(C)(C)c3nc4cc(F)ccc4n3C(C)C)cc2)cc1` [Example 20, 2-(4-Ethanesulfonyl-phenyl)-N-{4-[1-(5-fluoro-1-isopropyl-1H-benzoimidazol-2-yl)-1-methyl-ethoxy]-phenyl}-acetamide], for which the IC50 is greater than 100 nM, the inhibition at 1 µM is 79.8% and the inhibition at 10 µM stood at 85.2%.

Regarding `CCn1c(C(F)(F)Oc2ccc(NC(=O)Cc3ccc(S(=O)(=O)CC)cc3)cc2)nc2cc(Cl)ccc21` [Example 22, N-{4-[(5-Chloro-1-ethyl-1H-benzoimidazol-2-yl)-difluoro-methoxy]-phenyl}-2-(4-ethanesulfonyl-phenyl)-acetamide], the inhibition at 1 µM was 74.4% and the inhibition at 10 µM amounted to 82.8%.

Source of the values: US9718817B2, “Aryl and heteroaryl ether compounds as ROR gamma modulators” (Glenmark Pharmaceuticals S.A., priority 2014, dated 2017).
